Experimental data as given in patent US12465050B2, “Compositions comprising a pyridine carboxylate herbicide and protoporphyrinogen oxidase (protox) inhibitor herbicides” (priority 2018, dated 2025).

Assays:
Assay type in all cases: in vivo
[1] = tested on: Brassica napus (spring rape); test: Greenhouse postemergence herbicidal effect on BRSNN
Source text: (§1) Greenhouse Trial Methodology—Evaluation of Postemergence Herbicidal Effect
(§2) Seeds of the desired test plant species were planted in a 90:10% v/v (volume/volume) mixture of PRO-MIX® BX (Premier Tech Horticulture, Quakertown, Pa., USA) and PROFILE® GREENS GRADE™ (Profile Products LLC, Buffalo Grove, Ill., USA) planting mixture, which typically has a pH of 5.2 to 6.2 and an organic matter content of at least 50 percent, in plastic pots with a surface area of 103.2 square centimeters (cm^2). In some aspects or embodiments, to help ensure good germination and healthy plants, a fungicide treatment and/or other chemical or physical treatment was applied. The plants were grown for 7-36 days (d) in a greenhouse with an approximate 14-hour (h) photoperiod which was maintained at about 23° C. during the day and 22° C. during the night. Nutrients and water were added on a regular basis and supplemental lighting was provided with overhead metal halide 1000-Watt lamps as necessary. The plants were employed for testing when they reached the second or third true leaf stage.
(§3) Emulsifiable concentrates of each of each pyridine carboxylate herbicide (Compound A or Compound B) were prepared at 100 grams acid equivalent per liter (g ae/L). The emulsifiable concentrates also included a safener, cloquintocet mexyl, at 120 grams active ingredient per liter (g ai/L). An aliquot of each emulsifiable concentrate was placed in a 25 mL glass vial and diluted with an aqueous mixture of 1.25% (v/v) ACTIROB® B esterified rapeseed oil (Bayer Crop Science, Research Triangle Park, N.C., USA) or MSO® Concentrate with LECI-TECH® methylated soybean oil (Loveland Products, Loveland, Colo., USA) to obtain concentrated stock solutions at the highest application rate for each herbicide, based upon a 12 milliliter (mL) application volume at a rate of 187 liters per hectare (L/ha). The concentrated stock solutions were further diluted with an aqueous mixture of 1.25% v/v ACTIROB® B or MSO® Concentrate with LECI-TECH® to obtain stock solutions at reduced application rates for each herbicide. Spray solutions of the herbicide combinations (Compound A or Compound B plus PROTOX inhibitor herbicide) were prepared by adding weighed amounts or aliquots of the PROTOX inhibitor herbicides to the stock solutions of Compound A or Compound B to form 12-mL spray solutions in two-way combinations.
(§4) The spray solutions were applied to the plant material with an overhead Mandel track sprayer equipped with 8002E nozzles calibrated to deliver 187 L/ha over an application area of 0.503 square meters (m^2) at a spray height of 18 inches (43 centimeters (cm)) above the average plant canopy. Control plants were sprayed in the same manner with the solvent blank. All pyridine carboxylate herbicide (component a) application rates are given as “g ae/ha” and all PROTOX inhibitor herbicide (component b) application rates are given as “g ai/ha.”
(§5) The treated plants and control plants were placed in a greenhouse as described above and watered by sub-irrigation to prevent wash-off of the test compounds. After 20-22 d, the condition of the test plants as compared with that of the control plants was determined visually and scored on a scale of 0 to 100 percent where 0 corresponds to no injury and 100 corresponds to complete kill.

[2] = tested on: Avena fatua (wild oat); test: Greenhouse postemergence herbicidal effect on AVEFA
Source text: as §1, §2
(§6) Emulsifiable concentrates of each of each pyridine carboxylate herbicide (Compound A or Compound B) were prepared at 100 grams acid equivalent per liter (g ae/L). The emulsifiable concentrates also included a safener, cloquintocet mexyl, at 120 grams active ingredient per liter (g ai/L). […]
as §5

[3] = tested on: Abutilon theophrasti (velvetleaf); test: Greenhouse postemergence herbicidal effect on ABUTH
Source text: as §1, §2, §6, §5

[4] = tested on: Sorghum vulgare (sorghum); test: Greenhouse postemergence herbicidal effect on SORVU
Source text: as §1, §2, §6, §5

[5] = tested on: Cyperus esculentus (nutsedge); test: Greenhouse postemergence herbicidal effect on CYPES
Source text: as §1, §2, §6, §5

[6] = tested on: Triticum aestivum (spring wheat); test: Greenhouse postemergence phytotoxicity on crop TRZAS
Source text: as §1, §2, §3, §4, §5

[7] = tested on: Chenopodium album L. (common lambsquarters); test: Greenhouse postemergence herbicidal effect on CHEAL
Source text: as §1, §2, §3, §4, §5

[8] = tested on: Brassica napus (winter rape); test: Greenhouse postemergence herbicidal effect on BRSNW
Source text: as §1, §2, §3, §4, §5

[9] = tested on: Matricaria chamomilla (wild chamomile); test: Greenhouse postemergence herbicidal effect on MATCH
Source text: as §1, §2, §3, §4, §5

[10] = tested on: Lamium purpureum (purple deadnettle); test: Greenhouse postemergence herbicidal effect on LAMPU
Source text: as §1, §2
as §3, with “combinations. […]” for “combinations.”
as §5

[11] = tested on: Stellaria media (chickweed); test: Greenhouse postemergence herbicidal effect on STEME
Source text: as §1, §2
as §3, with “combinations. […]” for “combinations.”
as §5

[12] = tested on: Matricaria discoidea (pineapple weed); test: Greenhouse postemergence herbicidal effect on MATMT
Source text: as §1, §2
as §3, with “combinations. […]” for “combinations.”
as §5

[13] = tested on: Veronica hederifolia (ivy-leaved speedwell); test: Greenhouse postemergence herbicidal effect on VERHE
Source text: as §1, §2
as §3, with “combinations. […]” for “combinations.”
as §5

[14] = tested on: Papaver rhoeas (herbicide-resistant poppy); test: Greenhouse postemergence herbicidal effect on PAPRH-RES
Source text: as §1, §2
as §3, with “combinations. […]” for “combinations.”
as §5

[15] = tested on: Triticum aestivum (winter wheat); test: Greenhouse postemergence phytotoxicity on crop TRZAW
Source text: as §1, §2
as §3, with “combinations. […]” for “combinations.”
as §5

[16] = tested on: Hordeum vulgare (winter barley); test: Greenhouse postemergence phytotoxicity on crop HORVW
Source text: as §1, §2
as §3, with “combinations. […]” for “combinations.”
as §5

[17] = Compound A 7.5, Pyraclonil 0 g/ha
[18] = Compound A 7.5, Saflufenacil 0 g/ha
[19] = Compound A 10, Pyraclonil 0 g/ha
[20] = Compound A 10, Saflufenacil 0 g/ha
[21] = Compound A 7.5, Oxyfluorfen 0 g/ha
[22] = Compound A 7.5, Pyraflufen-ethyl 0 g/ha
[23] = Compound A 10, Oxyfluorfen 0 g/ha
[24] = Compound A 10, Pyraflufen-ethyl 0 g/ha
[25] = Compound A 15, Oxyfluorfen 0 g/ha

How did the “% visual injury, Obs” value ([1]; Compound A 7.5, Bifenox 0 g/ha) turn out when N#CCOC(=O)c1nc(-c2ccc3cc[nH]c3c2F)c(F)c(N)c1Cl [Compound A, cyanomethyl 4-amino-3-chloro-5-fluoro-6-(7-fluoro-1H-indol-6-yl)pyridine-2-carboxylate] was run?
The value was 23%.

What about the “% visual injury, Obs” value [1, 17] of the same compound?
Its value is 55%.

What about the “% visual injury, Obs” value [1, 18] of the same compound?
Its value is 65%.

And the “% visual injury, Obs” value ([1]; Compound A 10, Bifenox 0 g/ha)?
Its value is 45%.

And the “% visual injury, Obs” value [1, 19]?
The value was 60%.

What about the “% visual injury, Obs” value [1, 20] of the same compound?
Its value is 65%.

And the “% visual injury, Obs” value ([2]; Compound A 7.5, Bifenox 0 g/ha)?
Its value is 0%.

What about the “% visual injury, Obs” value ([2]; Compound A 10, Bifenox 0 g/ha) of the same compound?
Its value is 0%.

And the “% visual injury, Obs” value [3, 18]?
Its value is 68%.

And the “% visual injury, Obs” value [3, 20]?
The value was 80%.

And the “% visual injury, Obs” value [4, 18]?
The value was 0%.

What about the “% visual injury, Obs” value [4, 20] of the same compound?
Its value is 0%.

And the “% visual injury, Obs” value [5, 18]?
Its value is 30%.

And the “% visual injury, Obs” value [5, 20]?
The value was 8%.

And the “% visual injury, Obs” value ([6]; Compound A 7.5, Carfentrazone-ethyl 0 g/ha)?
Its value is 0%.

What about the “% visual injury, Obs” value [6, 21] of the same compound?
Its value is 0%.

What about the “% visual injury, Obs” value [6, 17] of the same compound?
Its value is 0%.

And the “% visual injury, Obs” value [6, 22]?
The value was 0%.

And the “% visual injury, Obs” value [6, 18]?
The value was 5%.

What about the “% visual injury, Obs” value ([6]; Compound A 10, Carfentrazone-ethyl 0 g/ha) of the same compound?
Its value is 0%.

What about the “% visual injury, Obs” value [6, 23] of the same compound?
Its value is 0%.

What about the “% visual injury, Obs” value [6, 19] of the same compound?
The value was 0%.

What about the “% visual injury, Obs” value [6, 24] of the same compound?
The value was 0%.

And the “% visual injury, Obs” value [6, 20]?
Its value is 3%.

And the “% visual injury, Obs” value [6, 25]?
The value was 0%.

What about the “% visual injury, Obs” value [7, 17] of the same compound?
The value was 70%.

What about the “% visual injury, Obs” value [7, 22] of the same compound?
The value was 75%.

And the “% visual injury, Obs” value [7, 19]?
Its value is 83%.

What about the “% visual injury, Obs” value [7, 24] of the same compound?
Its value is 80%.

What about the “% visual injury, Obs” value [8, 21] of the same compound?
Its value is 60%.

What about the “% visual injury, Obs” value [8, 22] of the same compound?
The value was 35%.

What about the “% visual injury, Obs” value [8, 23] of the same compound?
The value was 65%.

And the “% visual injury, Obs” value [8, 24]?
The value was 40%.

What about the “% visual injury, Obs” value [8, 25] of the same compound?
The value was 73%.

And the “% visual injury, Obs” value [9, 21]?
The value was 23%.

And the “% visual injury, Obs” value [9, 22]?
Its value is 10%.

What about the “% visual injury, Obs” value [9, 23] of the same compound?
The value was 35%.

What about the “% visual injury, Obs” value [9, 24] of the same compound?
Its value is 20%.

What about the “% visual injury, Obs” value [9, 25] of the same compound?
The value was 45%.

And the “% visual injury, Obs” value [10, 21]?
Its value is 68%.

And the “% visual injury, Obs” value [10, 23]?
Its value is 73%.

What about the “% visual injury, Obs” value [10, 25] of the same compound?
Its value is 73%.

What about the “% visual injury, Obs” value [11, 21] of the same compound?
The value was 85%.

What about the “% visual injury, Obs” value [11, 23] of the same compound?
Its value is 88%.

And the “% visual injury, Obs” value [11, 25]?
The value was 89%.

And the “% visual injury, Obs” value [12, 21]?
Its value is 20%.

What about the “% visual injury, Obs” value [12, 23] of the same compound?
Its value is 20%.

And the “% visual injury, Obs” value [12, 25]?
The value was 63%.

And the “% visual injury, Obs” value [13, 21]?
The value was 68%.

What about the “% visual injury, Obs” value [13, 23] of the same compound?
The value was 73%.

What about the “% visual injury, Obs” value [13, 25] of the same compound?
The value was 75%.

And the “% visual injury, Obs” value [14, 21]?
The value was 96%.

And the “% visual injury, Obs” value [14, 23]?
Its value is 98%.

What about the “% visual injury, Obs” value [14, 25] of the same compound?
The value was 100%.

And the “% visual injury, Obs” value [15, 21]?
Its value is 0%.

And the “% visual injury, Obs” value [15, 23]?
The value was 0%.

And the “% visual injury, Obs” value [15, 25]?
Its value is 0%.

And the “% visual injury, Obs” value [16, 21]?
The value was 0%.

What about the “% visual injury, Obs” value [16, 23] of the same compound?
Its value is 0%.

What about the “% visual injury, Obs” value [16, 25] of the same compound?
Its value is 0%.
